Results taken from publication PMC7876048, “Mutant-selective degradation by BRAF-targeting PROTACs” (Nature Communications, 2021).

Experiments:
[1] = molecular target: T1, BRAF-p61^V600E (SK-MEL-239 C4 cells) (Homo sapiens, UniProt P15056, DEL169-380/V600E); assay: BRAF degradation by immunoblot in SK-MEL-239 C4 cells; assay type: cell-based; conditions: p61 dimer
T1 construct: endogenous in cells; host or cells: SK-MEL-239 C4; HCC-364 vr1
Protocol: (§1) Cells were plated in 6 well dishes (5 × 10^5–8 × 10^5 cells) and allowed to attach overnight. […] The plates were then placed on ice and washed 1x with chilled PBS and lysed in buffer containing 25 mM Tris-HCl [pH 7.4], 0.25% sodium deoxycholate, 150 mM NaCl, 1% Triton X-100, supplemented with protease inhibitors (1x Roche protease inhibitor cocktail) and phosphatase inhibitors (10 mM NaF, 1 mM Na3OV4, and 20 mM β-glycerophosphate). Lysates were then cleared at 21,000 g for 10 min at 4 °C. Protein concentrations of the supernatants were then quantified using a Pierce BCA Protein Assay. 12–40 µg of protein were separated using a gradient (4–20%) Criterion TGX precast gel and transferred unto a nitrocellulose membrane. The membranes were then blocked in 5% non-fat milk in TBST (Tris-buffered Saline with Tween 20) for 1 h before probing with the indicated primary antibody overnight. Membranes were imaged using Bio-Rad Image Lab software using ECL prime detection reagent (GE Healthcare, RPN2232 or ThermoScientific, 34095).
(§2) Western blot data was quantified by using the band feature in Image Lab, and values were averaged and analyzed in GraphPad Prism. DC50 and DMAX values were fitted using a three parameter [inhibitor] versus response and reported directly from the Prism output. Mean ± SD and unpaired t-tests were performed in GraphPad Prism.

[2] = molecular target: T2, BRAF-p61^V600E (SK-MEL-239 C4 cells) (Homo sapiens, UniProt P15056+P40337, DEL169-380/V600E); assay: as above; assay type: cell-based; conditions: p61 dimer
T2 construct: endogenous in cells; host or cells: SK-MEL-239 C4; HCC-364 vr1
Protocol: as §1, §2

[3] = molecular target: T3, BRAF^WT (SK-BR-3 cells, HER2 amplification) (Homo sapiens, UniProt P15056); assay: BRAF^WT degradation by immunoblot in SK-BR-3 cells; assay type: cell-based
T3 construct: endogenous in cells; host or cells: SK-BR-3
Protocol: as §1, §2

[4] = system: SK-MEL-28 cells (Class 1, BRAF^V600E); assay: Cell proliferation (MTS) assay; assay type: cell-based
[5] = system: SK-MEL-246 cells (Class 2, BRAF^G469A); assay: Cell proliferation (MTS) assay; assay type: cell-based; conditions: 120 h, 5-day treatment, read-out: EC50, cell growth
[6] = system: BRAF (SK-MEL-239 cells, heterozygous BRAF^V600E); assay: BRAF degradation by immunoblot in SK-MEL-239 cells; assay type: cell-based
Protocol: as §1, §2

BRAF (BRAF^WT) = molecular target: T4, BRAF (BRAF^WT) (Homo sapiens, UniProt P15056); assay: Radiolabeled kinase assay (Reaction Biology); assay type: biochemical
T4 construct: purchased Reaction Biology Corps
Protocol: (§3) Kinase assays were performed by Reaction Biology Corps by their protocol in duplicate using Km amounts of ATP calculated for each kinase.

BRAF (G464V) = molecular target: T5, BRAF (G464V) (Homo sapiens, UniProt P15056, G464V); assay: Radiolabeled kinase assay (Reaction Biology); assay type: biochemical
T5 construct: purchased Reaction Biology Corps
Protocol: as §3

ARAF = molecular target: T6, ARAF (Homo sapiens, UniProt P10398); assay: Radiolabeled kinase assay (Reaction Biology); assay type: biochemical
T6 construct: purchased Reaction Biology Corps
Protocol: as §3

BRAF (V600A) = molecular target: T7, BRAF (V600A) (Homo sapiens, UniProt P15056, V600A); assay: Radiolabeled kinase assay (Reaction Biology); assay type: biochemical
T7 construct: purchased Reaction Biology Corps
Protocol: as §3

[7] = system: BRAF^WT : Cullin-2 association (NIH3T3 cells); assay: V5-BRAF immunoprecipitation, Cullin 2 association; assay type: cell-based; conditions: MEK inhibitor (1 µM cobimetinib, 2 h) pretreated NIH3T3 cells
Protocol: Doxycycline-induced NIH3T3 cells or 293 T-Rex cells that express indicated BRAF isoform were seeded in 10 cm dishes overnight. […] Cells were then placed on ice, washed with ice-cold 1X PBS, and lysed in 500 µL modified 1X lysis buffer (50 mM Tris-HCl, pH 7.4, 0.15 M NaCl, 1 mM EDTA, 1% NP40, 10% glycerol) containing 5 mM 1,10-phenanthroline monohydrate, 10 mM N-ethylmaleimide, 20 µM PR-619, and 1X protease inhibitor cocktail (Roche). Lysates were spun down at 14,000 × g at 4 °C for 10 min. Equal amounts of lysate was aliquoted onto 20 µL (bed volume) of anti-V5-beads (Sigma, A7345). V5-containing proteins were immunoprecipitated from lysates for 2 h at 4 °C with gentle rotation, after which samples were spun down at 6000 × g at 4 °C for 2 min and the beads were washed 4 times with DPBS. Beads were resuspended in 1X lithium dodecyl sulfate (LDS) sample buffer containing 5% 2-mercaptoethanol (ß-ME). Immunoprecipitated protein was eluted off the beads by heating at 95 °C for 5 min and the supernatant was run on an SDS-PAGE gel and evaluated for the presence of immunoprecipitated V5-tagged proteins, as well as Cullin 2. Input refers to the normalized input lysate loaded onto V5-sepharose beads.

[8] = 1 μM cobimetinib pre-treatment 1 hour, then 1 μM SJF-0628

T3 sequence (P15056 whole entry): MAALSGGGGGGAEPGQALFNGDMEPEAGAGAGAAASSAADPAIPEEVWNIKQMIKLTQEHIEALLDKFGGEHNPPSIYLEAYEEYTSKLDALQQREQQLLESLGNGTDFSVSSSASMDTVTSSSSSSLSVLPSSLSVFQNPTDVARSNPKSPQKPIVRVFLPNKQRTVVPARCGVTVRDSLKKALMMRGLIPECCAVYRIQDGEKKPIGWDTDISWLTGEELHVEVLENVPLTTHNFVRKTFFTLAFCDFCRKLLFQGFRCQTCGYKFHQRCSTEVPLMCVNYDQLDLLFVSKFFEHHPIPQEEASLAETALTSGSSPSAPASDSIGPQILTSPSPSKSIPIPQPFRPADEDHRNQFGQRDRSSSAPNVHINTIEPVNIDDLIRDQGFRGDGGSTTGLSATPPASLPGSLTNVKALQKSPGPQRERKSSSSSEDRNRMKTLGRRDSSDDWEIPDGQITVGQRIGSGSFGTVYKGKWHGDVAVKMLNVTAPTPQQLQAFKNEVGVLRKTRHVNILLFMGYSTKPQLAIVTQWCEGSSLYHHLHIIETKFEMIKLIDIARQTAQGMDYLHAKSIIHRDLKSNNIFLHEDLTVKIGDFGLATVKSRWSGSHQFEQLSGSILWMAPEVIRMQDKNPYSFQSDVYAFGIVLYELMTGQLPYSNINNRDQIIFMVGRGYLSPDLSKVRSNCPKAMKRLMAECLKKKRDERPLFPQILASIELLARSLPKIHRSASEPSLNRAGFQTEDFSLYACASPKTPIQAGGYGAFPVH
T1 sequence (P15056 with tags, fused parts or gaps DEL169-380/V600E): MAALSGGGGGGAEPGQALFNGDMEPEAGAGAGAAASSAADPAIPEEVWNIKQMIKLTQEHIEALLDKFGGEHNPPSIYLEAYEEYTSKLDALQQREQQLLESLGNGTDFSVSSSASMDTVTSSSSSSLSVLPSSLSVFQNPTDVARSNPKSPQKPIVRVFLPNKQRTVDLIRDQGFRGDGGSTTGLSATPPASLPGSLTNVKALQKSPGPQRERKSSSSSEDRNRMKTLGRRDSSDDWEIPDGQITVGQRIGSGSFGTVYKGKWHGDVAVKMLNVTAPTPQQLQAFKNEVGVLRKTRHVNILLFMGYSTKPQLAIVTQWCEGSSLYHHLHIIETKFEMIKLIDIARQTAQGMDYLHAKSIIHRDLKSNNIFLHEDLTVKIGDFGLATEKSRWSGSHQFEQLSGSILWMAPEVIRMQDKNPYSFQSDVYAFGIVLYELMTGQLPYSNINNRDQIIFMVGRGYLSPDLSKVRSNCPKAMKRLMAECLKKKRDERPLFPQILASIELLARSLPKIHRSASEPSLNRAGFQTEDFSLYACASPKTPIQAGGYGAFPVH
T1 sequence (P40337 whole entry, stated change not applied, further chain): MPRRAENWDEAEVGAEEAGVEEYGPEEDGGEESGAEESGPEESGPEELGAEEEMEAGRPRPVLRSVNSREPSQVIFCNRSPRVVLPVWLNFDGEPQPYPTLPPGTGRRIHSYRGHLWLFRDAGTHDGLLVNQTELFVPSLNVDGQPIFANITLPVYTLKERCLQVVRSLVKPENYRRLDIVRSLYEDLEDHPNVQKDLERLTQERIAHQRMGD
T1 sequence (Q15370 whole entry partner): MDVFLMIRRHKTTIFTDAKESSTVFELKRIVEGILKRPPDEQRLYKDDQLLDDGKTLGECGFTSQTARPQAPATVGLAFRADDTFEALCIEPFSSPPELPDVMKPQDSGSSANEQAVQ
T1 sequence (Q15369 whole entry partner): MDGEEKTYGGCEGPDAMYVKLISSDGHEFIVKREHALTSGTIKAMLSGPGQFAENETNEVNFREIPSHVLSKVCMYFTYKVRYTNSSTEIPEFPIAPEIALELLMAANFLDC
T2 sequence (P15056 with tags, fused parts or gaps DEL169-380/V600E): as the sequence (P15056 with tags, fused parts or gaps DEL169-380/V600E) above
T2 sequence (P40337 whole entry, stated change not applied): as the sequence (P40337 whole entry, stated change not applied, further chain) above
T2 sequence (Q15370 whole entry partner): as the sequence (Q15370 whole entry partner) above
T2 sequence (Q15369 whole entry partner): as the sequence (Q15369 whole entry partner) above
T5 sequence (P15056 whole entry G464V): as the sequence (P15056 whole entry) above, with G464V counted along it
T4 sequence (P15056 whole entry): as the sequence (P15056 whole entry) above
T6 sequence (P10398 whole entry): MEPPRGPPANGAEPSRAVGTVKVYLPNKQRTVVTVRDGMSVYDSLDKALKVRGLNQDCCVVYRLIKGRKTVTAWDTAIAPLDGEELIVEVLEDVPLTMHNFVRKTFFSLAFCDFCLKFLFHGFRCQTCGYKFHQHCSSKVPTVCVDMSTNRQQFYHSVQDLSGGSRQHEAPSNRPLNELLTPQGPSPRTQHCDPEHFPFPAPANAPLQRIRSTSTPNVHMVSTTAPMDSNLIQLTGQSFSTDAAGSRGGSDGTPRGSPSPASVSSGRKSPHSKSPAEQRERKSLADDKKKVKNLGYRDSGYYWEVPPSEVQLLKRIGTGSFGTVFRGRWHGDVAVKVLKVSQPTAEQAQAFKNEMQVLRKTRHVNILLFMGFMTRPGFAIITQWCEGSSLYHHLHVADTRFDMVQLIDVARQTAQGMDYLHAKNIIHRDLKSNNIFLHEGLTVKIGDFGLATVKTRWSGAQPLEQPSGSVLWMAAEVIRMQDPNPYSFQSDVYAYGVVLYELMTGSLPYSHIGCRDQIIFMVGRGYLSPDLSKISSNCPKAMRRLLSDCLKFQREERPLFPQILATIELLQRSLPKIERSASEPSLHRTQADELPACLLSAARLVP
T7 sequence (P15056 whole entry V600A): as the sequence (P15056 whole entry) above, with V600A counted along it

DC50 [1]: 72 nM
Dmax [2]: > 80%
time at which complete degradation of BRAF^WT observed [3, 8]: 12 h
time to PROTAC-induced degradation of BRAF^WT [3, 8]: ≤ 4 h
degradation of BRAF^WT ([3]; PROTAC concentrations greater than 1 µM): ~ 50%
SJF-0628-dependent BRAF^WT degradation ([3]; lapatinib 2-hour pre-treatment): 10%
SJF-0628-dependent BRAF^WT degradation ([3]; without lapatinib pre-treatment): 48%
EC50 ([4]; Homo sapiens, 72 h, 3 days, read-out: EC50, cell growth): 37 ± 1.2 nM
EC50 [5]: 45 ± 1.11 nM
IC50 (BRAF (BRAF^WT)): 5.8 nM
IC50 (BRAF (G464V)): 9.18 nM
IC50 (ARAF): 0.27 nM
IC50 (BRAF (V600A)): 1.06 nM
Compound: CCCS(=O)(=O)Nc1ccc(F)c(C(=O)c2c[nH]c3ncc(-c4ccc(N5CCN(CC(=O)NC(C(=O)N6CC(O)CC6C(=O)NCc6ccc(-c7scnc7C)cc6)C(C)(C)C)CC5)cc4)cc23)c1F (stereo not shown) [SJF-0628]
increase in potency of SJF-0628 (cell growth) ([4]; vs vemurafenib and SJF-0661): 6 fold
BRAF degradation [6]: minimal BRAF degradation
increase in PROTAC-induced Cullin-2 association with BRAF^WT [7]: 4 fold
